Data published in patent US5602278A (priority 1994, dated 1997).
Entries after “also recorded” stand apart in the source; their conditions may differ.

Assays:
[1] = tested on: EMT6 mouse mammary carcinoma cells
[2] = In vitro metabolism by rat liver microsomes under hypoxic or oxic conditions
[3] = tested on: CaNT murine adenocarcinoma; set-up: species or system CBA/Gy fTO mice; conditions: mouse
hypoxic cells = conditions: Wilson et al., 1992; cited from earlier work

**Q.** Which “effect of hypoxia and lowered pH on cytotoxicity” value [1] does the source give for `O=C(O)CCCc1ccc(N(CCCl)OCCCl)cc1` [CHL-HD, 4-[p-(N-2-chloroethoxy N-2-chloroethylamino)phenyl] butanoic acid] here?
**A.** Its value is “both hypoxia and lowered pH in the presence of reducing enzymes potentiate to cytotoxicity”.

**Q.** And the “effect of lowered extracellular pH on activity” value [1]?
**A.** Its value is “enhance when the extracellular pH is lowered below the physiological 7.4”.

**Q.** What about the “toxicity with reducing enzymes under hypoxia” value [1] of the same compound?
**A.** The value was “greater toxicity with reducing enzymes under hypoxia”.

**Q.** And the in vivo toxicity?
**A.** The in vivo toxicity was “minimal in vivo toxicity”.

**Q.** What about the “dependence of rate of metabolism on amount of cyt P450” value ([2]; hypoxia, NADPH 1 mM, microsomes 2.0-5.2 nmol cyt P450/ml) of the same compound?
**A.** Its value is “there is a relationship between the amount of cyt P450 in the metabolic reaction mixture and the rate of metabolism”.

**Q.** What about the metabolism ([2]; in air or in the presence of boiled microsomes) of the same compound?
**A.** Its metabolism is “very little if any metabolism”.

**Q.** And the “metabolism with NADPH” value ([2]; in the presence of NADPH, microsomes, hypoxia)?
**A.** The value was “metabolism occurs more readily at lower concentrations of cofactor”.

**Q.** And the “major enzyme responsible for activation” value ([2]; microsomal bioreductive activation)?
**A.** The value was “appears to be cyt P450”.

**Q.** And the “effect of CO on reductive metabolism” value ([2]; microsomes 2.9 nmol cyt P450/ml, NADPH 1 mM, hypoxia)?
**A.** The value was “CO inhibits the ability of microsomes to metabolize CHL-HD”.

**Q.** And the metabolism ([2]; microsomes and cofactors NADH or NADPH, under hypoxia)?
**A.** The metabolism was “is metabolized”.

**Q.** And the “conditions required for conversion to an activated alkylating species” value ([2]; rat liver microsomes, cofactors, inhibitors)?
**A.** The value was “reducing enzymes, co-factors and hypoxia were needed to activate CHL-HD to an alkylating species; also recorded: requires hypoxia and reducing enzymes and cofactors”.

**Q.** And the “potentiation of in vivo cytotoxicity by hydralazine” value [3]?
**A.** Its value is “potentiated by the administration of hydralazine 5 min prior or 30 post; also recorded: potentiated by hydralazine”.

**Q.** And the “activity compared to radiation, with concomitant hydralazine” value ([3]; in vivo)?
**A.** The value was “enhanced activity as compared to radiation”.

**Q.** For `C[N+](C)([O-])CCCNc1c2ccccc2nc2cccc([N+](=O)[O-])c12` [SN 24030], which “ability to diffuse into the extravascular compartment of tumors” value (hypoxic cells) is on record?
**A.** The value was “improved ability to diffuse into the extravascular compartment of tumors”.

**Q.** What about the “selectivity for hypoxic cells” value (hypoxic cells) of the same compound?
**A.** The value was “approximately 1500 fold”.
